Laboratory results published in patent US12655106B2 (Eikonizo Therapeutics, Inc., priority 2021, dated 2026).

What was measured:
[1] = biological target: T1, Full length Human HDAC6 (Homo sapiens, UniProt Q9UBN7); assay: Caliper endpoint assay for HDAC enzymatic activity (HDAC6); assay type: biochemical; conditions: for IC50: in vitro enzymatic, Caliper endpoint assay, 30 min pre-incubation, 1 μM substrate peptide; for Selectivity (6 v 8): ratio of HDAC8 IC50/HDAC6 IC50
T1 construct: Full length Human HDAC6; FLAG (C); host or cells: baculovirus expression system
T1 sequence (Q9UBN7 1-1215): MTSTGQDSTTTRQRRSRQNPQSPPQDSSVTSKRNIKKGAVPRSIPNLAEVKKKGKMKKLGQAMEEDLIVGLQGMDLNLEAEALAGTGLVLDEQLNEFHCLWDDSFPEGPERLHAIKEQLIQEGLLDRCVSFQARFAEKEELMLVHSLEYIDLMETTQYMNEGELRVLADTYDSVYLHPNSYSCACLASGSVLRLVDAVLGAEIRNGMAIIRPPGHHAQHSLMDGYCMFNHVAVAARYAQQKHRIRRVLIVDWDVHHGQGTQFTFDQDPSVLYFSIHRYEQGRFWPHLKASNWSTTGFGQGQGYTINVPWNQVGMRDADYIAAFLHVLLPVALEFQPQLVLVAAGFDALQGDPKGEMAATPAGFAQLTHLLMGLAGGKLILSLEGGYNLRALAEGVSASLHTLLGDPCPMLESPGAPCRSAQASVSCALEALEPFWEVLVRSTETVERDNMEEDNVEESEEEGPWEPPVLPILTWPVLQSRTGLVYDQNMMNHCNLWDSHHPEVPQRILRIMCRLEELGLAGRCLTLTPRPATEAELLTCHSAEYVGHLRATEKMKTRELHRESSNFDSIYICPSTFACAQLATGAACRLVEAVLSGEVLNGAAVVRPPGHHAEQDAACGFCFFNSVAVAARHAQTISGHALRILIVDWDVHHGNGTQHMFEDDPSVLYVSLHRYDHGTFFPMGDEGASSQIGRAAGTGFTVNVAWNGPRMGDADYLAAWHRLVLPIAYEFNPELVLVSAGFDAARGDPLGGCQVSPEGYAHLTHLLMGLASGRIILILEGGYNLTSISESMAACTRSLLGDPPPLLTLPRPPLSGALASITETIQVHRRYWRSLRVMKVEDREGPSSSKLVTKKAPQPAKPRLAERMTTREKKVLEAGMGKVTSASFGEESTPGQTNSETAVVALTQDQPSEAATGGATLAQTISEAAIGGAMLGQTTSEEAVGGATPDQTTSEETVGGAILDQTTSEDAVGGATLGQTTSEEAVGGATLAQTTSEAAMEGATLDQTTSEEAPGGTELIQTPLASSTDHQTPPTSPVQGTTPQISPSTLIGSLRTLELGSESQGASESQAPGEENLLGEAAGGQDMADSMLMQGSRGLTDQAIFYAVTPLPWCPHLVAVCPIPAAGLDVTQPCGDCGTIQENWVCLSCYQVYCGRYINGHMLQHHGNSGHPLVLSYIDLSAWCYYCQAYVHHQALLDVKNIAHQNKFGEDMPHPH

[2] = biological target: T2, Full length Human HDAC8 (Homo sapiens, UniProt Q9BY41); assay: Caliper endpoint assay for HDAC enzymatic activity (HDAC8); assay type: biochemical; conditions: in vitro enzymatic, 30 min pre-incubation, 1 μM substrate peptide
T2 construct: Full length Human HDAC8; HIS (N); host or cells: baculovirus expression system
T2 sequence (Q9BY41 1-377): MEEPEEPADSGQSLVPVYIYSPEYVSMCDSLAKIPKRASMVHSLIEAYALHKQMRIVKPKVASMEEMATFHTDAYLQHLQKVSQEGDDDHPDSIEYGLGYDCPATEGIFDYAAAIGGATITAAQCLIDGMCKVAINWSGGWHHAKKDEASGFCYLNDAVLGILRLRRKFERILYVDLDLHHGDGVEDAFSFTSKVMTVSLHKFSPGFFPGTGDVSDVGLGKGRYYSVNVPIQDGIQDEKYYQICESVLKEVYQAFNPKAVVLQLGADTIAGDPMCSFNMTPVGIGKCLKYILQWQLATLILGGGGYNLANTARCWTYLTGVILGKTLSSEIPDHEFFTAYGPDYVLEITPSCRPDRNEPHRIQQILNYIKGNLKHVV

Row | Structure (SMILES) | IC50 [1] [µM] | Selectivity (6 v 8) [1] | IC50 [2] [µM]
1 | CN1C[C@]2(CN3CCc4cc(C(=O)NO)cc(F)c4C3)C[C@H]1CO2 [Compound 475, 8-fluoro-2-[[(1R,4S)-5-methyl-2-oxa-5-azabicyclo[2.2.1]heptan-1-yl]methyl]-3,4-dihydro-1H-isoquinoline-6-carbohydroxamic acid] | 0.001 to 0.1 | IV (IV: >100-1000) | 10 to 100
2 | O=C(NO)c1cc(F)c2c(c1)CCN(CC1CC3CCC(C1)N3C1CC1)C2 (stereo not drawn) [Compound 484, 2-[(8-cyclopropyl-8-azabicyclo[3.2.1]octan-3-yl)methyl]-8-fluoro-3,4-dihydro-1H-isoquinoline-6-carbohydroxamic acid] | 0.001 to 0.1 | IV (IV: >100-1000) | 1 to 10
3 | NC12CC(CN3CCc4cc(C(=O)NO)cc(F)c4C3)(C1)C2 [Compound 486, 2-[(3-amino-1-bicyclo[1.1.1]pentanyl)methyl]-8-fluoro-3,4-dihydro-1H-isoquinoline-6-carbohydroxamic acid] | 0.001 to 0.1 | IV (IV: >100-1000) | 10 to 100
4 | CNC12CC(CN3CCc4cc(C(=O)NO)cc(F)c4C3)(C1)C2 [Compound 487, 8-fluoro-2-[[3-(methylamino)-1-bicyclo[1.1.1]pentanyl]methyl]-3,4-dihydro-1H-isoquinoline-6-carbohydroxamic acid] | 0.001 to 0.1 | IV (IV: >100-1000) | 1 to 10
5 | CN1CC2(CN3CCc4cc(C(=O)NO)cc(F)c4C3)CC1C2 [Compound 490, 8-fluoro-2-[(2-methyl-2-azabicyclo[2.1.1]hexan-4-yl)methyl]-3,4-dihydro-1H-isoquinoline-6-carbohydroxamic acid] | 0.001 to 0.1 | IV (IV: >100-1000) | 1 to 10
6 | O=C(NO)c1cc(F)c2c(c1)CCN(CC13CC(C1)N(C1CC1)C3)C2 [Compound 491, 2-[(2-cyclopropyl-2-azabicyclo[2.1.1]hexan-4-yl)methyl]-8-fluoro-3,4-dihydro-1H-isoquinoline-6-carbohydroxamic acid] | 0.001 to 0.1 | IV (IV: >100-1000) | 10 to 100
7 | O=C(NO)c1cc(F)c2c(c1)CCN(CC1C3CNCC1C3)C2 (stereo not drawn) [Compound 493] | 0.001 to 0.1 | IV (IV: >100-1000) | 10 to 100
8 | O=C(NO)c1cc(F)c2c(c1)CCN(CC1C3CC1CN(C1CC1)C3)C2 (stereo not drawn) [Compound 494, 2-[(3-cyclopropyl-3-azabicyclo[3.1.1]heptan-6-yl)methyl]-8-fluoro-3,4-dihydro-1H-isoquinoline-6-carbohydroxamic acid] | 0.001 to 0.1 | III (III: >10-100) | 1 to 10
9 | [2H]c1cc2c(cc1C(=O)NO)CCN(C1CC3(CCCCC3)C1)C2 [Compound 504, N-hydroxy-2-(spiro[3.5]nonan-2-yl)-1,2,3,4-tetrahydroisoquinoline-7-d-6-carboxamide] | 0.1 to 1 | IV (IV: >100-1000) | 10 to 100
10 | [2H]c1c(C(=O)NO)ccc2c1CCN(C1CC3(CCCCC3)C1)C2 [Compound 505, N-hydroxy-2-(spiro[3.5]nonan-2-yl)-1,2,3,4-tetrahydroisoquinoline-5-d-6-carboxamide] | 0.001 to 0.1 | IV (IV: >100-1000) | 10 to 100
11 | O=C(NO)c1ccc2c(c1F)CCN(C1CC3(CCCCC3)C1)C2 [Compound 506, 5-fluoro-N-hydroxy-2-(spiro[3.5]nonan-2-yl)-1,2,3,4-tetrahydroisoquinoline-6-carboxamide] | > 100 | V (V: >1000) | 10 to 100
12 | O=C(NO)c1cc(F)c2c(c1)CCN(C1CC3(CCN(C4CC4)CC3)C1)C2 [Compound 607, 2-(7-cyclopropyl-7-azaspiro[3.5]nonan-2-yl)-8-fluoro-3,4-dihydro-1H-isoquinoline-6-carbohydroxamic acid] | 0.001 to 0.1 | IV (IV: >100-1000) | 10 to 100
